Data taken from patent US8101783B1, “Titanium-maltol compound and method of synthesizing the same” (priority 2007, dated 2012).

Assays:
[1] = Solubility of the Ti(IV)-maltol complexes in water and in CH2Cl2; format: physicochemical
Method: Alternatively, more than two (and preferably three) equivalents of maltol could be used to provide an excess and ensure completion of the reaction.
However, at pH of 8.4 the complex becomes soluble in water but promotes tetramerization of the [Ti(maltolato)2(OH)2] species. In fact, this can be monitored by NMR spectroscopy. A pure sample of cis-[Ti(maltolato)2(OH)2] was dissolved in D2O at pH of 8.4. […] These two species belong most likely to cis-[Ti(maltolato)2(OH)2] and [Ti4(maltolato)8(μ-O)4]. After 24 hours the tetrameric species continues increasing while the monomeric species decreases. Upon standing for two weeks, at pH of 8.4, this solution yields orange crystals suitable for X-ray diffraction. Evidently, Ti(maltolato)2(OH)2 further reacts to form a tetranuclear titanium complex, which crystallizes as a hydrate, [Ti4(maltolato)8(μ-O)4].18H2O, Single crystal X-ray structure determination was pursued on this high pH species, which solid state structure is illustrated in FIG. 2. The crystal data and structure refinement details as well as the bonding parameters are summarized below in Table 1 and Table 2, respectively.
Electrochemical behavior of Ti(maltolato)2(OH)2 was investigated using cyclic voltammetry (cv). Ti(maltolato)2(OH)2 in CH2Cl2/[NBu4] […] If this potential is compared with previously reported Ti(IV)-maltol and Ti(IV)-guaiacol complexes, it resembles to reduction potentials of monomeric species such as Ti(maltolato)2(OEt)2 (−1.0 V) and Ti(maltolato)2(Cl)2 (−1.55 V) and not to the tetrameric species [Ti4(guaiacolato)8(μ-O)4] (−1.94 V).

[2] = Stability of the crystals removed from the mother liquor; format: physicochemical; conditions: when removed from the mother liquor
[3] = physiological pH; cited from earlier work

In the case of “dihydroxobis(maltolato)titanium(IV) [Ti(maltolato)2(OH)2]”, the solubility in water ([1]; low pH (5.4)) was “slightly water soluble” and the solubility in water ([1]; pH of 8.4, promotes tetramerization) was “soluble”.
With `Cc1occc(=O)c1[O-].Cc1occc(=O)c1[O-].Cc1occc(=O)c1[O-].Cc1occc(=O)c1[O-].Cc1occc(=O)c1[O-].Cc1occc(=O)c1[O-].Cc1occc(=O)c1[O-].Cc1occc(=O)c1[O-].O.O.O.O.O.O.O.O.O.O.O.O.O.O.O.O.O.O.[O-2].[O-2].[O-2].[O-2].[Ti+4].[Ti+4].[Ti+4].[Ti+4]` [[Ti4(maltolato)8(μ-O)4].18H2O] the stability of crystals [2] was “unstable and undergoes dehydration”.
For `Cc1occc(=O)c1[O-].Cc1occc(=O)c1[O-].Cc1occc(=O)c1[O-].Cc1occc(=O)c1[O-].Cc1occc(=O)c1[O-].Cc1occc(=O)c1[O-].Cc1occc(=O)c1[O-].Cc1occc(=O)c1[O-].[O-2].[O-2].[O-2].[O-2].[Ti+4].[Ti+4].[Ti+4].[Ti+4]` [[Ti4(maltolato)8(μ-O)4]], the “solubility in CH2Cl2” value ([1]; CH2Cl2, cyclic voltammetry attempt) was “lack of solubility”.
For `CC(=O)[CH-]C(=O)c1ccccc1.CC(=O)[CH-]C(=O)c1ccccc1.CC[O-].CC[O-].[Ti+4]` [budotitane], the hydrolytic stability [3] is given as “low hydrolytic stability”.
For titanocene dichloride, the hydrolytic stability [3] is listed as “low hydrolytic stability”.
